Laboratory results published in the CheMixHub viscosity set.

Experiment: xn = mol fraction of the nth substance listed

O.O.O.O.O.O=S(=O)([O-])[S-].[Na+].[Na+] + N#C[S-].[K+]
101.33 kPa, x2 = 0.3
Settings	viscosity [mPa·s]
294 K	39.21
298 K	31.11
303 K	24.56
308 K	19.44
313 K	15.6
318 K	13.1
323 K	10.89

O.O.O.O.O.O=S(=O)([O-])[S-].[Na+].[Na+] + N#C[S-].[Na+]
101.33 kPa, x2 = 0.3
Settings	viscosity [mPa·s]
308 K	30.26
313 K	23.84
318 K	19.42
323 K	15.54

C[N+](C)(C)CCO.[Cl-] + NCCO
101 kPa
Settings	viscosity [mPa·s]
293.15 K, x1 = 0.091	40.5
293.15 K, x1 = 0.111	48.81
293.15 K, x1 = 0.143	51.72
298.15 K, x1 = 0.125	38.64
303.15 K, x1 = 0.125	30.08
308.15 K, x1 = 0.125	23.81
313.15 K, x1 = 0.091	16.33
313.15 K, x1 = 0.111	20.81
313.15 K, x1 = 0.125	19.3
313.15 K, x1 = 0.143	21.41
318.15 K, x1 = 0.125	15.79
323.15 K, x1 = 0.125	12.88

CCCC[N+](CCCC)(CCCC)CCCC.[Cl-] + N[C@@H](CO)C(=O)O
Settings	viscosity [mPa·s]
323.15 K, 101 kPa, x1 = 0.9	491

CC(O)C(C)O (stereo not given) + O
viscosity [mPa·s]
Settings	303.15 K	308.15 K	313.15 K	318.15 K	323.15 K
101 kPa, x1 = 0.01	0.943	0.842	0.759	0.69	0.632
101 kPa, x1 = 0.0199	1.108	0.982	0.877	0.792	0.719
101 kPa, x1 = 0.03	1.294	1.138	1.01	0.905	0.816
101 kPa, x1 = 0.0399	1.506	1.312	1.155	–	0.919
101 kPa, x1 = 0.0499	1.733	1.498	1.308	1.155	1.028
101 kPa, x1 = 0.0601	1.985	1.7	1.471	1.292	1.145
101 kPa, x1 = 0.0699	2.242	1.91	1.649	1.436	1.264
101 kPa, x1 = 0.08	2.53	2.135	1.826	1.586	1.39
101 kPa, x1 = 0.0899	2.79	2.345	1.998	1.724	1.503
101 kPa, x1 = 0.1	3.084	2.571	2.182	1.868	1.622
101.3 kPa, x1 = 0.1176	–	3.174	2.627	2.203	–
101.3 kPa, x1 = 0.2307	–	6.873	5.405	4.363	–
101.3 kPa, x1 = 0.3181	–	10.06	7.822	6.198	–
101.3 kPa, x1 = 0.4443	–	15.66	11.92	9.192	–
101.3 kPa, x1 = 0.5311	–	20.41	15.17	11.64	–
101.3 kPa, x1 = 0.6427	–	27.5	20.24	15.02	–
101.3 kPa, x1 = 0.8275	–	41.68	29.62	21.32	–
101.3 kPa, x2 = 0.3539	–	12.95	–	–	–

CCCC[P+](CCCC)(CCCC)CCCC.[Cl-] + O
Settings	viscosity [mPa·s]
298.15 K, 100 kPa, x1 = 0.008058	1.485

C[N+](C)(C)CCO.[Cl-] + O
Settings	viscosity [mPa·s]
298.15 K, 101.33 kPa, x1 = 0.002	0.9099

Cc1ccc(S(=O)(=O)[O-])cc1.[Na+] + O
viscosity [mPa·s], 101 kPa
Settings	x1 = 9e-05	x1 = 0.00018	x1 = 0.0009	x1 = 0.0018	x1 = 0.00448	x1 = 0.00893	x1 = 0.0133	x1 = 0.0177
298.15 K	0.899	0.9	0.916	0.941	1.002	1.113	1.235	1.368
318.15 K	0.598	0.599	0.609	0.626	0.661	0.728	0.799	0.879

NCCO.O=CO + O
viscosity [mPa·s], 101 kPa
Settings	x1 = 0.0088	x1 = 0.0186	x2 = 0.8561	x2 = 0.8993	x2 = 0.9327	x2 = 0.9591	x2 = 0.9712
293.15 K	1.23	1.29	3.936	2.814	2.172	1.842	1.482
298.15 K	1.08	1.17	3.51	2.52	1.914	1.614	1.35
303.15 K	0.99	1.05	3.12	2.28	1.716	1.386	1.23

O=C([O-])CC(O)(CC(=O)[O-])C(=O)[O-].[Na+].[Na+].[Na+] + O
viscosity [mPa·s]
Settings	293.15 K	298.15 K	303.15 K
101 kPa, x1 = 0.0013	–	0.94	–
101 kPa, x1 = 0.0025	–	1.033	–
101 kPa, x1 = 0.0052	–	1.126	–
101 kPa, x1 = 0.0067	–	1.21	–
101 kPa, x1 = 0.0146	–	1.805	–
101 kPa, x1 = 0.0243	–	3.067	–
101 kPa, x1 = 0.0364	–	5.952	–
101 kPa, x1 = 0.0518	–	9.7	–
101.33 kPa, x1 = 0.002	1.087	0.959	0.859
101.33 kPa, x1 = 0.0054	1.327	1.168	1.043
101.33 kPa, x1 = 0.0093	1.67	1.466	1.305
101.33 kPa, x1 = 0.0126	2.033	1.78	1.58
101.33 kPa, x1 = 0.0165	2.569	2.242	1.984
101.33 kPa, x1 = 0.0196	3.097	2.696	2.379
101.33 kPa, x1 = 0.0232	3.855	3.346	2.944
101.33 kPa, x1 = 0.0269	4.836	4.185	3.67
101.33 kPa, x1 = 0.0297	5.748	4.963	4.341
101.33 kPa, x1 = 0.0335	7.277	6.263	5.46
101.33 kPa, x1 = 0.0366	8.834	7.583	6.593

O=P([O-])([O-])[O-].[Na+].[Na+].[Na+] + O
viscosity [mPa·s], 101 kPa
Settings	x1 = 0.0018	x1 = 0.0054	x1 = 0.0089	x1 = 0.012	x1 = 0.016
298.15 K	0.9742	1.167	1.458	1.859	2.317
303.15 K	0.8777	1.054	1.31	1.67	2.131
308.15 K	0.7769	0.9282	1.146	1.444	1.868

O=[N+]([O-])[O-].O=[N+]([O-])[O-].[Sr+2] + O
viscosity [mPa·s], 100 kPa
Settings	x1 = 0.004	x1 = 0.009	x1 = 0.02	x1 = 0.04	x1 = 0.05
298.15 K	0.9435	1.029	1.226	1.628	2.52
323.15 K	0.589	0.639	0.775	1.012	1.524

CC(O)C(C)O (stereo not given) + O=C1CCCN1
Settings	viscosity [mPa·s]
308.15 K, 101 kPa, x2 = 0.5898	14.65

COC(=O)OCC(F)(F)F + O=C1OCCO1
313.15 K, 100 kPa
Settings	viscosity [mPa·s]
x2 = 0.1011	0.826
x2 = 0.1994	0.92
x2 = 0.3006	1.03
x2 = 0.3997	1.142
x2 = 0.5004	1.264
x2 = 0.5989	1.39
x2 = 0.7023	1.524
x2 = 0.7988	1.652
x2 = 0.9	1.786

Fc1ccccc1 + O=CN1CCOCC1
viscosity [mPa·s], 101 kPa
Settings	x2 = 0.0946	x2 = 0.1904	x2 = 0.2873	x2 = 0.3854	x2 = 0.4847	x2 = 0.5853	x2 = 0.687	x2 = 0.79	x2 = 0.8944
303.15 K	0.72	0.957	1.245	1.595	2.028	2.579	3.265	4.113	5.175
308.15 K	0.677	0.895	1.157	1.466	1.846	2.325	2.919	3.64	4.539
313.15 K	0.641	0.845	1.079	1.361	1.711	2.139	2.669	3.314	4.111

O=Cc1ccccc1 + O=[N+]([O-])c1ccccc1
303.15 K, 101 kPa
Settings	viscosity [mPa·s]
x1 = 0.3043	1.495
x1 = 0.6049	1.405
x1 = 0.9018	1.295

O=Cc1ccccc1 + OCc1ccccc1
293.15 K, 100 kPa
Settings	viscosity [mPa·s]
x2 = 0.1032	1.695
x2 = 0.2	1.882
x2 = 0.3007	2.114
x2 = 0.4023	2.322
x2 = 0.4989	2.633
x2 = 0.6013	3.114
x2 = 0.688	3.591
x2 = 0.8	4.366
x2 = 0.8984	5.395

[Br-].[Br-].[Br-].[Br-].[Sn+4] + Oc1ccccc1
313.15 K, 101 kPa
Settings	viscosity [mPa·s]
x1 = 0.1	4.21
x1 = 0.2	3.817
x1 = 0.3	3.351
x1 = 0.4	3.034
x1 = 0.5	2.762
x1 = 0.6	2.56
x1 = 0.7	2.387
x1 = 0.8	2.262
x1 = 0.9	2.137

c1ccc(Nc2ccccc2)cc1 + Oc1ccccc1
viscosity [mPa·s], 101 kPa
Settings	303.15 K	313.15 K	323.1 K
x1 = 0.21	–	–	3.825
x1 = 0.444	–	–	4.362
x1 = 0.683	–	–	5.01
x2 = 0.133	12.57	7.95	–
x2 = 0.2435	11.65	7.43	–
x2 = 0.3531	10.72	6.93	–
x2 = 0.4454	10.03	6.52	–
x2 = 0.5306	9.47	6.2	–
x2 = 0.6104	8.98	5.91	–
x2 = 0.6735	8.61	5.68	–
x2 = 0.7266	8.28	5.51	–
x2 = 0.7989	7.91	5.28	–
x2 = 0.8548	7.65	5.13	–
x2 = 0.908	7.42	4.98	–
x2 = 0.9541	7.255	4.845	–

O=C(O)C(Cl)Cl + [Cl-].[Cl-].[Cl-].[Cl-].[Sn+4]
viscosity [mPa·s], 101 kPa
Settings	x2 = 0.1	x2 = 0.2027	x2 = 0.3211	x2 = 0.5002	x2 = 0.805
308.15 K	3.657	2.621	2.121	1.445	0.831
323.15 K	2.609	1.982	1.63	1.09	0.705
